# From patent US7230029B2, “Fatty acid analogues for the treatment of proliferative skin disorders” (Thia Medica AS, priority 2000, dated 2007)
# Experiments:
# CD36/FAT = CD36/FAT mRNA expression in NHK treated with PPAR activators and TTA; assay type: cell-based, human; conditions: NHK treated over a period of three days
# Description: (§1) Normal adult human epidermal keratinocytes were isolated from human skin obtained after plastic surgery. First passage keratinocytes were grown in serum-free KGM (GIBCO BRL/Life Technologies, Inc.) and replated in 75 cm^2 culture flask or in 96-well microtiterplates preheated at 37° C. at a density of 3500 cells/well. Cells were incubated in a humidified atmosphere of 5% CO2 at 37° C. When cells reached 40% confluence they were treated with growth medium containing selective PPAR ligands (either alone or in combinations as indicated), tetradecylthioacetic acid (TTA) or 1,2 mM Ca^2+. Wy14643 was obtained from Calbiochem, BRL49653 was kindly provided by J. Fleckner, Novo Nordisk), L165041 was kindly provided by D. E. Moller (Merck Research Laboratories, Rahway, N.J.). TTA was manufactured in accordance with example 1. Medium was changed every day. For differentiation, keratinocytes at 40% confluence (day 0) were treated with 1,2 mM CaCl2. Medium was changed every other day. HaCaT cells were obtained from L. Aarenstrup (Danish Cancer Society, Denmark). HaCaT cells were cultured in Dulbecco's modified Eagle's Medium (DMEM) with 10% fetal calf serum (FCS) and antibiotics (100 u/ml penicillin, 1 mg/ml streptomycin sulphate) in a humidified atmosphere of 5% CO2 at 37° C. Medium was changed every other day.
# (§2) To evaluate how TTA and the various PPAR activators affected expression of a known PPAR responsive gene and differentiation of keratinocytes, we first measured the mRNA levels of CD36/FAT and the two differentiation markers, Inv and Tg-1 in NHK treated with PPAR selective activators and TTA over a period of three days (FIG. 1a).
# NHK cells = assay: Viability/proliferation by modified MTT assay; assay type: cell-based, human
# Description: as §1, with “HaCaT cells were obtained from L. Aarenstrup (Danish Cancer Society, Denmark). HaCaT cells were cultured in Dulbecco's modified Eagle's Medium (DMEM) with 10% fetal calf serum (FCS) and antibiotics (100 u/ml penicillin, 1 mg/ml streptomycin sulphate) in a humidified atmosphere of 5% CO2 at 37° C. Medium was changed every other day.” left out
# Viability/proliferation was measured by a modification of the MTT assay introduced by Mosmann T (J Immunol Methods 65:55–63, 1983). […] The amount of formazan was quantified in an ELISA-reader at 540 nm. […]
# (§3) Differentiation of keratinocytes is correlated with an increase in cell size. […] In parallel the expression of Tg-1 was monitored using an ELISA-based assay (FIG. 3b).
# [1] = system: transglutaminase type 1 (Tg-1); assay: Tg-1 expression by ELISA; assay type: cell-based, human; conditions: normalized to cell number
# Description: as §1, with “HaCaT cells were obtained from L. Aarenstrup (Danish Cancer Society, Denmark). HaCaT cells were cultured in Dulbecco's modified Eagle's Medium (DMEM) with 10% fetal calf serum (FCS) and antibiotics (100 u/ml penicillin, 1 mg/ml streptomycin sulphate) in a humidified atmosphere of 5% CO2 at 37° C. Medium was changed every other day.” left out
# Cells were subjected to two freeze-thaw cycles and transglutaminase type 1 (Tg-1) was determined by ELISA. […] The amount of transglutaminase was measured by quantifying the OPD reaction with an ELISA-reader at 490 nm and subtracting background at 650 nm. […]
# as §3
# Inv [2] = assay: Inv expression by indirect immunofluorescence microscopy; assay type: cell-based, human
# Excerpt: (§4) In addition, expression of Inv and Tg-1 was examined by indirect immunofluorescence microscopy (FIG. 3).
# Tg-1 = Tg-1 expression by indirect immunofluorescence microscopy; assay type: cell-based, human
# Excerpt: as §4
# Inv [3] = assay: Inv mRNA expression in NHK (RT-PCR); assay type: cell-based, human; conditions: NHK treated over a period of three days
# Description: as §1, with “HaCaT cells were cultured in Dulbecco's modified Eagle's Medium (DMEM) with 10% fetal calf serum (FCS) and antibiotics (100 u/ml penicillin, 1 mg/ml streptomycin sulphate) in a humidified atmosphere of 5% CO2 at 37° C. Medium was changed every other day.” left out
# as §2
# Inv [4] = assay: Inv protein expression in NHK by Western blotting; assay type: cell-based, human
# Description: as §1
# human keratinocytes = assay: Keratinocyte differentiation marker gene expression (summary statements); assay type: cell-based
# Description: In the present study we have in detail analyzed the expression of the PPARs during ex vivo differentiation of human keratinocytes, in isolated basal and suprabasal cells, and in sections of human skin. […] All three PPAR subtype selective ligands either alone or in combination only modestly effected keratinocyte proliferation.
# as §1, with “HaCaT cells were cultured in Dulbecco's modified Eagle's Medium (DMEM) with 10% fetal calf serum (FCS) and antibiotics (100 u/ml penicillin, 1 mg/ml streptomycin sulphate) in a humidified atmosphere of 5% CO2 at 37° C. Medium was changed every other day.” left out
SMILES,expression of CD36/FAT mRNA (CD36/FAT),inhibition of NHK cell proliferation (NHK cells),Tg-1 expression [1],Inv expression (Inv [2]),Tg-1 expression (Tg-1),Inv mRNA expression (Inv [3]),Inv protein expression (Inv [4]),keratinocyte differentiation marker gene expression (human keratinocytes)
[Ca+2].[Cl-].[Cl-] [CaCl2],did not induce expression of CD36/FAT,only marginal,significantly induced Tg-1 expression,comparable levels of expression,comparable levels of expression,,,
CCCc1c(OCCCOc2ccc(OCC(=O)O)cc2)ccc(C(C)=O)c1O [L165041],induced a significant dose-dependent expression of CD36,,,in a dose-dependent manner induced Inv expression,,dose-dependent induction of Inv mRNA expression,dose-dependent induction of Inv protein,induced in a dose-dependent manner expression of involucrin
Cc1cccc(Nc2cc(Cl)nc(SCC(=O)O)n2)c1C [Wy14643],induced expression of CD36/FAT,,,,,modest induction of Inv mRNA expression,,
